The results in this text go back to patent US8278345B2, “Inhibitors of glutaminyl cyclase” (Probiodrug AG, priority 2006, dated 2012).

Each structure is given as a SMILES string. Like-named read-outs stand apart in the source and are kept apart here.

This assay concerns the target hQC (Homo sapiens, UniProt Q16769). As to the kind of experiment: Inhibitor assay for glutaminyl cyclase activity (fluorometric, H-Gln-βNA / H-Gln-AMC). The format is biochemical. An outline of the steps:
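Coupled fluorometric assay at 30 °C with pyroglutamyl aminopeptidase, in Tris/HCl pH 8.0 with EDTA, substrate H-Gln-βNA (0.2 mM; ex/em 320/410 nm) or H-Gln-AMC (ex/em 380/460 nm), initiated by QC. Screening: 4 mM inhibitor, substrate at 1 KM; Ki from progress curves fitted to competitive inhibition.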

[1] abbreviates: compound from preparative synthesis, purified, read-out: IC50 hQC.

hQC, sequence (Q16769 29-361): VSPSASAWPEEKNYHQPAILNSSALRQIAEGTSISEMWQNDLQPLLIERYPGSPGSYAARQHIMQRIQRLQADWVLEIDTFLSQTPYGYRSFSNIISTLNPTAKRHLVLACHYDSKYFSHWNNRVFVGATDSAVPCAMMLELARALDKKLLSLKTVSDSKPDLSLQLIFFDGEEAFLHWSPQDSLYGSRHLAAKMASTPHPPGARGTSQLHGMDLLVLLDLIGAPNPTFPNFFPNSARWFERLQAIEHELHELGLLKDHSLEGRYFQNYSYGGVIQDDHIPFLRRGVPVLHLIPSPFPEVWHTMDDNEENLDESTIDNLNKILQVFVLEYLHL

With `O=C(C1=C(O)C(=O)N(c2ccc3[nH]cnc3c2)C1c1ccc(Cl)c(C(F)(F)F)c1)C1CCCCC1` (centres unmarked) [Compound 454, 1-(1H-Benzoimidazol-5-yl)-5-(4-chloro-3-trifluoromethyl-phenyl)-4-cyclohexanecarbonyl-3-hydroxy-1,5-dihydro-pyrrol-2-one], the IC50 (read-out: IC50) is 2560 nM. Still for that read-out and setting: next, `CCC1=C(O)C(=O)N(c2ccc3[nH]cnc3c2)C1c1ccnc2ccccc12` (centres unmarked) [Compound 302, 1-(1H-Benzoimidazol-5-yl)-4-ethyl-3-hydroxy-5-quinolin-4-yl-1,5-dihydro-pyrrol-2-one]: 2920 nM; `O=C1C(O)=C(c2ccc(O)cc2)C(C(F)(F)F)N1CCCn1ccnc1` (centres unmarked) [Compound 166, 3-Hydroxy-4-(4-hydroxy-phenyl)-1-(3-imidazol-1-yl-propyl)-5-trifluoromethyl-1,5-dihydro-pyrrol-2-one]: 400 nM; `CCCCC1C(C)=C(O)C(=O)N1CCCn1ccnc1` (centres unmarked) [Compound 48, 5-Butyl-3-hydroxy-1-(3-imidazol-1-yl-propyl)-4-methyl-1,5-dihydro-pyrrol-2-one]: 2200 nM. Regarding `CSCC1=C(O)C(=O)N(c2ccc3[nH]cnc3c2)C1c1cc(Cl)ccc1O` (centres unmarked) [Compound 336, 1-(1H-Benzoimidazol-5-yl)-5-(5-chloro-2-hydroxy-phenyl)-3-hydroxy-4-methylsulfanylmethyl-1,5-dihydro-pyrrol-2-one], the IC50 worked out at 156 nM under setting [1] and 310 nM (read-out: IC50). `CC(C)CC(=O)C1=C(O)C(=O)N(c2ccc3[nH]cnc3c2)C1C1CCOC1` (centres unmarked) [Compound 291, 1-(1H-Benzoimidazol-5-yl)-3-hydroxy-4-(3-methyl-butyryl)-5-(tetrahydro-furan-3-yl)-1,5-dihydro-pyrrol-2-one]: for the setting “read-out: IC50”, the IC50 is 490 nM.

In the case of `Cc1ccc(C2C(c3ccc(O)cc3)=C(O)C(=O)N2CCCn2ccnc2)cc1` (centres unmarked) [Compound 148, 3-Hydroxy-4-(4-hydroxy-phenyl)-1-(3-imidazol-1-yl-propyl)-5-p-tolyl-1,5-dihydro-pyrrol-2-one], the IC50 under setting [1] came to 152 nM and the IC50 (read-out: IC50) was 40 nM. For the molecule `Cc1ccc2occ(C3C(c4ccccc4)=C(O)C(=O)N3c3ccc4[nH]cnc4c3)c(=O)c2c1` (centres unmarked) [Compound 262, 1-(1H-Benzoimidazol-5-yl)-3-hydroxy-5-(6-methyl-4-oxo-4H-chromen-3-yl)-4-phenyl-1,5-dihydro-pyrrol-2-one], under “read-out: IC50”, the IC50 was determined as 850 nM.

For `O=C1C(O)=C(c2ccccc2)C(c2c(F)ccc(Cl)c2F)N1c1ccc2[nH]cnc2c1` (centres unmarked) [Compound 339, 1-(1H-Benzoimidazol-5-yl)-5-(3-chloro-2,6-difluoro-phenyl)-3-hydroxy-4-phenyl-1,5-dihydro-pyrrol-2-one], the IC50 (read-out: IC50) came to 580 nM. With `CCC1=C(O)C(=O)N(c2ccc3[nH]cnc3c2)C1c1coc2ccc(C)cc2c1=O` (centres unmarked) [Compound 428, 1-(1H-Benzoimidazol-5-yl)-4-ethyl-3-hydroxy-5-(6-methyl-4-oxo-4H-chromen-3-yl)-1,5-dihydro-pyrrol-2-one], the IC50 (read-out: IC50) was determined as 40 nM. For `O=C1C(O)=C(c2c[nH]c3ccccc23)C(Cc2ccccc2)N1CCCn1ccnc1` (centres unmarked) [Compound 134, 5-Benzyl-3-hydroxy-1-(3-imidazol-1-yl-propyl)-4-(1H-indol-3-yl)-l 5-dihydro-pyrrol-2-one], the IC50 (read-out: IC50) was 400 nM. Still for that read-out and setting: to `O=C1C(O)=C(c2ccc(O)cc2)C(c2c[nH]c3ccccc23)N1CCCn1ccnc1` (centres unmarked) [Compound 167, 3-Hydroxy-4-(4-hydroxy-phenyl)-1-(3-imidazol-1-yl-propyl)-5-(1H-indol-3-yl)-1,5-dihydro-pyrrol-2-one] belongs 40 nM; to `CCC1=C(O)C(=O)N(CCCn2ccnc2)C1c1cc(Cl)cc(Cl)c1O` (centres unmarked) [Compound 220, 5-(3,5-Dichloro-2-hydroxy-phenyl)-4-ethyl-3-hydroxy-1-(3-imidazol-1-yl-propyl)-1,5-dihydro-pyrrol-2-one], 2200 nM. On the same count and under the same terms, next, `CCCCCC1=C(O)C(=O)N(CCCn2ccnc2)C1C1=CCCCC1` (centres unmarked) [Compound 201, 5-Cyclohex-1-enyl-3-hydroxy-1-(3-imidazol-1-yl-propyl)-4-pentyl-1,5-dihydro-pyrrol-2-one]: 1300 nM; `CC1=C(O)C(=O)N(CCCn2ccnc2)C1c1ccc(C)o1` (centres unmarked) [Compound 25, 3-Hydroxy-1-(3-imidazol-1-yl-propyl)-4-methyl-5-(5-methyl-furan-2-yl)-1,5-dihydro-pyrrol-2-one]: 4900 nM; `CCCCCC1C(C)=C(O)C(=O)N1CCCn1ccnc1` (centres unmarked) [Compound 30, 3-Hydroxy-1-(3-imidazol-1-yl-propyl)-4-methyl-5-pentyl-1,5-dihydro-pyrrol-2-one]: 400 nM. Same read-out and setting: next, `CC1=C(O)C(=O)N(CCCn2ccnc2)C1/C=C/c1ccccc1` (centres unmarked) [Compound 33, 3-Hydroxy-1-(3-imidazol-1-yl-propyl)-4-methyl-5-(styryl)-1,5-dihydro-pyrrol-2-one]: 3100 nM; `O=C1C(O)=C(c2c[nH]c3ccccc23)C(C(F)(F)F)N1CCCn1ccnc1` (centres unmarked) [Compound 131, 3-Hydroxy-1-(3-imidazol-1-yl-propyl)-4-(1H-indol-3-yl)-5-trifluoromethyl-1,5-dihydro-pyrrol-2-one]: 1300 nM; `CCCCCC1=C(O)C(=O)N(CCCn2ccnc2)C1c1c[nH]c2ccccc12` (centres unmarked) [Compound 204, 3-Hydroxy-1-(3-imidazol-1-yl-propyl)-5-(1H-indol-3-yl)-4-pentyl-1,5-dihydro-pyrrol-2-one]: 40 nM.

For the molecule `Cc1cc(C2C(c3ccc(O)cc3)=C(O)C(=O)N2c2ccc3[nH]cnc3c2)oc1C` (centres unmarked) [Compound 271, 1-(1H-Benzoimidazol-5-yl)-5-(4,5-dimethyl-furan-2-yl)-3-hydroxy-4-(4-hydroxy-phenyl)-1,5-dihydro-pyrrol-2-one], the IC50 (read-out: IC50) worked out at 1390 nM. Take `O=C1C(O)=C(c2ccccc2)C(c2cccs2)N1CCCn1ccnc1` (centres unmarked) [Compound 103, 3-Hydroxy-1-(3-imidazol-1-yl-propyl)-4-phenyl-5-thiophen-2-yl-1,5-dihydro-pyrrol-2-one]: the IC50 (read-out: IC50) is 1300 nM. Still for that read-out and setting: next, `CCCCC1C(c2ccc(O)cc2)=C(O)C(=O)N1CCCn1ccnc1` (centres unmarked) [Compound 177, 5-Butyl-3-hydroxy-4-(4-hydroxy-phenyl)-1-(3-imidazol-1-yl-propyl)-1,5-dihydro-pyrrol-2-one]: 40 nM. With `O=C1C(O)=C(c2c[nH]c3ccccc23)C(c2ccc(O)c(Br)c2)N1c1ccc2[nH]cnc2c1` (centres unmarked) [Compound 438, 1-(1H-Benzoimidazol-5-yl)-5-(3-bromo-4-hydroxy-phenyl)-3-hydroxy-4-(1H-indol-3-yl)-1,5-dihydro-pyrrol-2-one], under “read-out: IC50”, the IC50 came out at 580 nM. Still for that read-out and setting: next, `Cc1ccc(C2C(C(C)C)=C(O)C(=O)N2CCCn2ccnc2)cc1C` (centres unmarked) [Compound 61, 5-(3,4-Dimethyl-phenyl)-3-hydroxy-1-(3-imidazol-1-yl-propyl)-4-isopropyl-1,5-dihydro-pyrrol-2-one]: 400 nM; `CSCC1=C(O)C(=O)N(c2ccc3[nH]cnc3c2)C1c1cccc(F)c1` (centres unmarked) [Compound 299, 1-(1H-Benzoimidazol-5-yl)-5-(3-fluoro-phenyl)-3-hydroxy-4-methylsulfanylmethyl-1,5-dihydro-pyrrol-2-one]: 5260 nM; `Cc1ccc2occ(C3C(c4c[nH]c5ccccc45)=C(O)C(=O)N3c3ccc4[nH]cnc4c3)c(=O)c2c1` (centres unmarked) [Compound 346, 1-(1H-Benzoimidazol-5-yl)-3-hydroxy-4-(1H-indol-3-yl)-5-(6-methyl-4-oxo-4H-chromen-3-yl)-1,5-dihydro-pyrrol-2-one]: 4990 nM. As for `CC(C)C1=C(O)C(=O)N(CCCn2ccnc2)C1c1ccccc1` (centres unmarked) [Compound 65, 3-Hydroxy-1-(3-imidazol-1-yl-propyl)-4-isopropyl-5-phenyl-1,5-dihydro-pyrrol-2-one], the IC50 (read-out: IC50) came out at 3100 nM. In the case of `O=C1C(O)=C(c2ccccc2)C(c2ccccc2)N1CCCn1ccnc1` (centres unmarked) [Compound 92, 3-Hydroxy-1-(3-imidazol-1-yl-propyl)-4,5-diphenyl-1,5-dihydro-pyrrol-2-one], where the note is “read-out: IC50”, the IC50 came to 3100 nM. In the case of `CCCCCC1=C(O)C(=O)N(CCCn2ccnc2)C1c1ccc(O)cc1` (centres unmarked) [Compound 218, 3-Hydroxy-5-(4-hydroxy-phenyl)-1-(3-imidazol-1-yl-propyl)-4-pentyl-1,5-dihydro-pyrrol-2-one], the concentration for half-maximal inhibition (IC50) under setting [1] is 613 nM and the IC50 (read-out: IC50) was 40 nM.

As for `O=C1C(O)=C(c2ccc(O)cc2)C(c2ccccc2)N1CCCn1ccnc1` (centres unmarked) [Compound 162, 3-Hydroxy-4-(4-hydroxy-phenyl)-1-(3-imidazol-1-yl-propyl)-5-phenyl-1,5-dihydro-pyrrol-2-one], the IC50 (read-out: IC50) was 40 nM. For `CC(C)/C=C/C1C(c2c[nH]c3ccccc23)=C(O)C(=O)N1CCCn1ccnc1` (centres unmarked) [Compound 118, 3-Hydroxy-1-(3-imidazol-1-yl-propyl)-4-(1H-indol-3-yl)-5-(3-methyl-but-1-enyl)-1,5-dihydro-pyrrol-2-one], the IC50 (read-out: IC50) came to 1300 nM. Same read-out and setting: to `O=C1C(O)=C(c2ccc(O)cc2)C(C2=CCCCC2)N1CCCn1ccnc1` (centres unmarked) [Compound 164, 5-Cyclohex-1-enyl-3-hydroxy-4-(4-hydroxy-phenyl)-1-(3-imidazol-1-yl-propyl)-1,5-dihydro-pyrrol-2-one] belongs 1300 nM. The same measure, in the same setting: next, `CCCC(=O)C1=C(O)C(=O)N(c2ccc3[nH]cnc3c2)C1c1ccc[nH]1` (centres unmarked) [Compound 355, 1-(1H-Benzoimidazol-5-yl)-3-butyryl-4-hydroxy-1,2-dihydro-1′H-[2,2′]bipyrrolyl-5-one]: 8680 nM; `CCC1=C(O)C(=O)N(c2ccc3[nH]cnc3c2)C1c1cc(Cl)ccc1O` (centres unmarked) [Compound 276, 1-(1H-Benzoimidazol-5-yl)-5-(5-chloro-2-hydroxy-phenyl)-4-ethyl-3-hydroxy-1,5-dihydro-pyrrol-2-one]: 4360 nM. With `CC1=C(O)C(=O)N(CCCn2ccnc2)C1Cc1ccccc1` (centres unmarked) [Compound 41, 5-Benzyl-3-hydroxy-1-(3-imidazol-1-yl-propyl)-4-methyl-1,5-dihydro-pyrrol-2-one], the IC50 (read-out: IC50) was 1300 nM.
